Reference: US8617555B2, “Pharmaceutical compositions comprising activated-potentiated antibodies to human insulin receptor and endothelial nitric oxide (NO) synthase” (priority 2010, dated 2013)

Tests used:
[1] = system: rats with streptozotocin-induced diabetes mellitus; test: Fasting blood plasma glucose level in rats with streptozotocin-induced diabetes mellitus; format: in vivo, Wistar rats; conditions: STZ rats
Experimental: In the study, 150 male Wistar were used (weight at beginning of study 250-300 g, age 3.5-4 months). 10 rats were intact. The rest were intravenously injected with streptozotocin at the dose of 50 mg/kg (experimental model of diabetes mellitus). […] Intact rats received distilled water in the same volume. On days 7, 14 and 21 of injection of preparations in rats, fasting blood plasma glucose level measured with enzymatic method (glucose oxidase method) with utilization of “glucose FKD” kits (Russia).

[2] = system: rats with streptozotocin-induced diabetes mellitus; test: Oral glucose tolerance test (OGTT) on day 14 in rats with streptozotocin-induced diabetes mellitus; format: in vivo, Wistar rats; conditions: STZ rats; day 14 of injection; glucose 1 g/kg per os; administered alone
Experimental: The rats were starving at water for 18 hours. 60 min before the test they were last given test substances. Intact rats received distilled water in the same volume. Glucose was administered per os 50% w/w water glucose solution (1 g/kg of rat weight). Serum glucose of blood sample from tail vein was measured by using “Glucose FKD” kit (OOO “Pharamaceutical and clinical diagnostics, Russia) at 0, 30, 60, 90, 120 min. Mean area under the curve (AUC) concentration of blood glucose over time was calculated.

`CN(CCOc1ccc(CC2SC(=O)NC2=O)cc1)c1ccccn1` (stereo not drawn) [Rosiglitazone] was tested. Which “decrease in glucose level versus control” value ([1]; day 14 of the experiment, p<0.05 versus control) did it give?
The value was 36%.

How did the “glucose tolerance, area under concentration-time curve (AUC) in OGTT (in words)” value [2] turn out when “insulin: short-acting insulin, 8 units/kg/day subcutaneously, 1/2 of the effective dose” was run?
Its value is “most effectively increased glucose tolerance”.

And the “effect on blood plasma glucose level (in words)” value ([1]; all observation periods, 1/2 of the effective dose, glucose measured 1 hour after injection)?
Its value is “down to the level of the intact control”.
